Results taken from publication PMC12040169 (PLOS Biology, 2025).

Experiment: in vitro
Conditions: human, hela cells, % viability

Work on `Cc1ccc(N(Cc2ccco2)C(=O)c2cccc(S(=O)(=O)N(C)C)c2)cc1` [CBK267578] yielded a viability at 28.5 h, 10 µM of 91.6%.
With `CN1CCN(CCCNC(=O)N2CCN(c3cc(C(F)(F)F)ccn3)CC2)CC1` [CBK156431] the viability at 28.5 h, 10 µM was 93.7%.
With `Cn1nccc1C(=O)N[C@H]1C2CCCCC2[C@@H]1c1ccccc1` (some centres unmarked) [CBK285127] the viability at 28.5 h, 10 µM was 102%.
With `CCN(CCO)C(=O)c1coc(COc2ccc3sc(C)nc3c2)n1` [CBK307321] the viability at 28.5 h, 10 µM was 89.7%.
`O=C(Nc1ccccc1C(=O)NCc1ccccc1)c1cccc(F)c1` [CBK269351] showed a viability at 28.5 h, 10 µM of 88.9%.
With `CN(C)CC(=O)N1c2ccccc2CCc2ccc(NC(=O)c3ccc([N+](=O)[O-])cc3)cc21` [CBK278207C] the viability at 28.5 h, 10 µM was 87.4%.
With `CNCC1CCCN(C(=O)c2ccc(Oc3cccnc3)cc2)C1` (centres unmarked) [CBK304479] the viability at 28.5 h, 10 µM was 83.2%.
For `CC(C)c1ccnc(C(C)Sc2nc(N)c(Br)c(Cl)n2)c1` (centres unmarked) [CBK016828], the viability at 28.5 h, 10 µM was 86.1%.
For `COc1ccc(CCNC(=O)N2CCCC(C(=O)O)C2)cc1OC` (centres unmarked) [CBK161354], the viability at 28.5 h, 10 µM was 100%.
For `CC(C)N1CCC(=NNC(=O)COc2ccc(Cl)cc2Cl)CC1` [CBK262614], the viability at 28.5 h, 10 µM was 83.2%.
`CC(CCc1ccc(F)cc1)NC(=O)c1cc2c([nH]c1=O)CCC2` (centres unmarked) [CBK281512] gave a viability at 28.5 h, 10 µM of 91.9%.
Work on `c1cnc(N2CCCC2)c(Sc2nc[nH]n2)n1` [CBK093737] yielded a viability at 28.5 h, 10 µM of 102%.
Compound `CSc1nsc(SCC(=O)c2cc3ccccc3oc2=O)n1` [CBK268833] has a viability at 28.5 h, 10 µM of 105%.
`CCN(CC)CCSc1nc(O)c(Cc2ccccc2)c(=O)[nH]1` [CBK072486] showed a viability at 28.5 h, 10 µM of 88.9%.
In the case of `CC(Oc1cc(Cl)ccc1Cl)c1nnc(S)n1C` (centres unmarked) [CBK288376], the viability at 28.5 h, 10 µM is reported as 84.8%.
For `COc1cccc(C(CNS(=O)(=O)c2ccc3c(c2)OCCCO3)N(C)C)c1` (centres unmarked) [CBK298270], the viability at 28.5 h, 10 µM was 98.2%.
Compound `COc1ccc(S(=O)(=O)Nc2ccccc2C(=O)O)cc1OC` [CBK042368] has a viability at 28.5 h, 10 µM of 85.7%.
For `Cc1cc(OCC(O)CN2CCN(CCO)CC2)ccc1C(C)C` (centres unmarked) [CBK278254C], the viability at 28.5 h, 10 µM was 89%.
With `CCOC(=O)N1CCN(C(C(=O)O)c2c[nH]c3ccc(C)cc23)CC1` (centres unmarked) [CBK286632] the viability at 28.5 h, 10 µM was 93.1%.
`CN1CCN(CCCCn2nc3n(c2=O)-c2ccccc2OC3(C)C)CC1` [CBK023953C] showed a viability at 28.5 h, 10 µM of 95.8%.
With `O=C(Nc1ccc2n(c1=O)C[C@H]1C[C@@H]2CN(C(=O)COc2ccccc2)C1)C1CCCCC1` [CBK289175] the viability at 28.5 h, 10 µM was 91.9%.
In the case of `O=C1c2ccccc2C(=O)N1c1ccccn1` [CBK113682], the viability at 28.5 h, 10 µM is reported as 99.5%.
Work on `Cc1noc(C)c1Cc1ccc(C(=O)Nc2nc3ccccc3n2C)o1` [CBK299839] yielded a viability at 28.5 h, 10 µM of 85.6%.
`CC(=O)Nc1ccc(S(=O)(=O)NC2(C(F)(F)F)C(=O)Nc3c2c(=O)[nH]c(=S)n3C2CCCCC2)cc1` (centres unmarked) [CBK268683] gave a viability at 28.5 h, 10 µM of 97.2%.
`Cc1nc2ccccc2n1CCNC(=O)c1ccccc1SCc1ccc(C#N)cc1` [CBK297082] gave a viability at 28.5 h, 10 µM of 106%.
For `NS(=O)(=O)c1ccc(Nc2nc(-c3ccccc3)c(CC(=O)O)s2)cc1` [CBK131899], the viability at 28.5 h, 10 µM was 91.6%.
Compound `O=C(Nc1cccc2ccccc12)C1CCC(C(=O)Nc2cccc3ccccc23)CC1` (centres unmarked) [CBK268706] has a viability at 28.5 h, 10 µM of 81.9%.
`CC(CNC(=O)C(C)Oc1ccccc1)CN(C)C` (centres unmarked) [CBK268658] showed a viability at 28.5 h, 10 µM of 94%.
Work on `CC(C)(C)C(=O)CN1CCC2(CC1)NCCc1c2[nH]c2cc(F)ccc12` [CBK039568] yielded a viability at 28.5 h, 10 µM of 90.2%.
`CCc1nn(CC(=O)NCC2CC2)c(=O)c2cc3sc(C)cc3n12` [CBK284100] showed a viability at 28.5 h, 10 µM of 85.7%.
Work on `NC(=O)C1(Cc2cccc(-c3cccs3)c2)CCN(C(=O)Cc2cccc(F)c2)CC1` [CBK285783] yielded a viability at 28.5 h, 10 µM of 98%.
Compound `O=C(O)CCC(=O)Nc1ccccc1Sc1ccc(Cl)cc1` [CBK287015] has a viability at 28.5 h, 10 µM of 99.4%.
`Cc1ccc(C(=O)O)cc1NC(=O)C(C)Oc1cccc(Cl)c1` (centres unmarked) [CBK268331] gave a viability at 28.5 h, 10 µM of 95.7%.
`CN(CC1(C)COC1)C(=O)CCc1nc2ccccc2[nH]1` [CBK281719] showed a viability at 28.5 h, 10 µM of 88.8%.
Work on `C=C(C)CN1CCN(C(=O)c2c(C)oc3ccc(O)cc23)CC1` [CBK282626] yielded a viability at 28.5 h, 10 µM of 95%.
`COCCn1c(CO)nnc1[C@H]1C[C@@H](NC(=O)c2ccc(C)cc2F)C1` [CBK307296] showed a viability at 28.5 h, 10 µM of 101%.
In the case of `COc1cc(/C=C2/C(=O)NC(=O)N(c3ccccc3)C2=O)cc(Cl)c1O` [CBK263361], the viability at 28.5 h, 10 µM (bulk resorufin, single well) is reported as 93.3%.
`O=C(O)C1CCCCC1C(=O)NCCCCc1ccccc1` (centres unmarked) [CBK287205] showed a viability at 28.5 h, 10 µM of 83.2%.
Work on `Oc1cccnc1N1CCN(Cc2ccccc2)CC1` [CBK045849] yielded a viability at 28.5 h, 10 µM of 104%.
For `COc1cc(C(=O)N2CCN(Cc3c[nH]c4ccccc34)CC2)cc(OC)c1OC` [CBK301212G], the viability at 28.5 h, 10 µM was 77.7%.
Work on `CCCC(=O)N1CCC(c2cc3n(n2)[C@@H](C(F)(F)F)C[C@@H](C)N3)C1` (some centres unmarked) [CBK282237] yielded a viability at 28.5 h, 10 µM of 99.2%.
With `Cc1cc(N2CCCC2=O)cc(C)c1S(N)(=O)=O` [CBK288458] the viability at 28.5 h, 10 µM was 89.9%.
Work on `CC(=O)c1cc(C(=O)N2CCC(O)(c3ccccc3C)CC2)cs1` [CBK282532] yielded a viability at 28.5 h, 10 µM of 92.8%.
With `c1cnc(N2CCN(Cc3ccc4c(c3)OCO4)CC2)c(OC2CCCCC2)n1` [CBK082833T] the viability at 28.5 h, 10 µM was 95.6%.
